Earlier results, collected in article PMC3010278 (Journal of medicinal chemistry, 2010).

System: QR1
Conditions: in vivo

C[S+]([O-])CCCCN=C=S (stereo not shown) [Compound 54, sulforaphane]
QR1 induction in rat mammary gland: induce QR1
